Measured values as given in patent publication US5183828A, “Polyhydroxybenzoic acid derivatives” (priority 1990, dated 1993).

Columns and labels:
[1] = test system: DMPO-OH and DMPO-R radical adducts in coronary effluent of reperfused rabbit hearts; experiment: EPR spin trapping (DMPO) on coronary effluent of reperfused rabbit hearts; design: species or system New Zealand white rabbits
Experimental: (§1) Female New Zealand white rabbits (2 kg) were heparinized and anesthetized and their hearts removed. The isolated rabbit hearts were perfused by the method of Langendorff at a constant pressure of 80 mm Hg with a Krebs-bicarbonate-buffered perfusate which was bubbled with 95% O2, 5 % CO2 gas. Chelex-treated perfusate was prepared by eluting the solution through a column of chelex 100 resin which was pre-equilibrated with 4 volumes of the perfusate solution. All perfusate solutions were routinely filtered through 0.8 um millipore filters prior to use. Heart rate and left ventricular developed pressure were measured using a fluid-filled balloon secured into the left ventrile. The balloon was connected to a Statham P23 DB pressure transducer via a hydraulic line and the transducer output amplified to a strip chart recorder. […]
EPR spectra were recorded in flat cells at room temperature with either Varian E-9 or Bruker-IBM ER 300 spectrometers operating at X-band using 100 kHz modulation frequency and with TE 104 or TM 110 cavities. The microwave frequency and magnetic field were precisely measured using a Hewlett Packard 5342A Microwave Frequency counter and Bruker ER 035M NMR Gaussmeter. […] Quantitation of the free radical signals was performed by comparing the double integral of the observed signal to that of a known concentration of the tempo free radical in aqueous solution. […]

[2] = test system: superoxide (xanthine oxidase reaction or human leukocytes); experiment: effect on superoxide generation in vitro; type: biochemical
Experimental: The rate of production of superoxide from the xanthine oxidase reaction or from human leukocytes activated with phorbol myristate acetate was measured spectrophotometrically as the superoxide dismutase (SOD)-inhibitable portion of the reduction of ferricytochrome c or nitroblue tetrazolium (NBT). All assays were carried out at 37° C., pH 7.1. For the superoxide production by the xanthine oxidase reaction, a concentration of 0.04 U/ml of xanthine oxidase was used with 0.1 mM xanthine as substrate. Absorbances were measured in the presence of 30 U/ml of SOD and in its absence. The indicators were either ferricytochrome c or NBT in a concentration of 20 uM. The initial rate of reduction of NBT was monitored at 530 nm and that of cytochrome c at 550 nm. Extinction coefficients were 21.4×10 ^3 /M cm for cytochrome c and 17.9×10^3 /M cm for NBT. The initial rate of production of superoxide from leukocytes was measured using a concentration of 20 uM ferricytochrome c or NBT as described above in the presence and absence of 30 U/ml of SOD.

isolated rabbit hearts = experiment: contractile function in isolated Langendorff rabbit heart after global ischemia and reperfusion, Table 9; design: species or system New Zealand white rabbits; settings: 30 min global ischemia, 45 min reperfusion; bolus of 10 mM solution then 100 uM over first min; control 49 ± 9 (p<0.01)
Source text: The compounds of this invention, as represented by the above formula, are useful in treating ischemia reperfusion injury, presumably because of their free-radical scavenging ability. The following protocol illustrates this activity on the ischemia produced during treatment of coronary artery disease.
as §1, with “recorder. The ventricular volume was adjusted to achieve a left ventricular end disastolic pressure of 12 mmHg. During periods of global ischemia, the balloon was deflated and then reinflated 15 min after reflow.” for “recorder.”

With NC(=NO)c1cc(O)c(O)c(O)c1 [3,4,5-trihydroxybenzamidoxime] the “DMPO-OH and DMPO-R EPR signals upon reperfusion” value ([1]; 40 mM DMPO, post-ischemic reperfusion with drug) was “not observed”, the “new radical EPR signal on reperfusion with drug” value ([1]; with or without DMPO) was “appears as a single broad peak centered at 3480 G” and the “Cytochrome C Reduction” value ([2]; 10 uM compound) was 4.73 nmol. The “NBT Reduction” value ([2]; 10 uM compound) was 5.35 nmol, the “Cytochrome C Reduction” value ([2]; 20 uM compound) was 4.56 nmol and the “NBT Reduction” value ([2]; 20 uM compound) was 5.06 nmol. For the same compound, the “Cytochrome C Reduction” value ([2]; 50 uM compound) was 5.38 nmol, the “NBT Reduction” value ([2]; 50 uM compound) was 2.55 nmol and the “Cytochrome C Reduction” value ([2]; 100 uM compound) was 6.06 nmol. The “NBT Reduction” value ([2]; 100 uM compound) was 1.14 nmol, the “Cytochrome C Reduction” value ([2]; 200 uM compound) was 6.50 nmol and the “NBT Reduction” value ([2]; 200 uM compound) was 0.81 nmol. For the same compound, the “Cytochrome C Reduction” value ([2]; 300 uM compound) was 6.25 nmol, the “NBT Reduction” value ([2]; 300 uM compound) was 0.71 nmol and the “Cytochrome C Reduction” value ([2]; 500 uM compound) was 5.81 nmol. The “NBT Reduction” value ([2]; 500 uM compound) was 0.87 nmol and the “Left ventricular developed pressure” value (isolated rabbit hearts) was 67±9 mm Hg.
